# Source: patent publication US20220304942A1, “TREATMENT OF OBESITY AND RELATED CONDITIONS” (University of Greenwich, priority 2019, published 2022)
# How the values were obtained:
# [1] = system: male, wild-type C57BL/6 mice; test: Short term (four-week) dosing of 2,3-butanediol in drinking water to wild-type mice; type: in vivo; details: 28 days
# Method: 2,3-butanediol was then administered over a four-week dosing period to wild-type mice. The 2,3-butanediol was delivered to male, wild-type C57BL/6 mice in drinking water, from 13 to 17 weeks of age. Dose delivery estimation was based on mouse average water consumption. Groups of male mice were either untreated, treated with 60, 250 or 600 mg/kg 2,3-butanediol in their drinking water. Water was changed twice weekly. Weights of mice and food intake were recorded. Urine was collected on day 0 (age 13 weeks, pre-treatment) and at 28 days post-treatment (mice aged 17 weeks) and analysed for 2,3-butanediol.
# Blood was collected on day 0 (age 13 weeks) and at 28 days post-treatment (mice aged 17 weeks). Plasma was isolated and analysed. At termination of experiment, epidydimal fat pads (EWAT) were weighed and expressed as EWAT:Body weight ratios, […]
# WT mice = test: Longer term dosing of 2,3-butanediol to WT mice, with washout cohort; type: in vivo
# Method: Male mice were dosed with 200 mg/kg/day 2,3-butanediol from age 8 weeks to age 29 weeks. Mice were housed 4 to a cage. […], treatment was removed from one cohort, called the ‘washout 6 weeks’. Treatment continued in one cohort, called ‘treatment throughout’. Urine collected 1 week following removal of 2,3-butanediol confirmed the absence of 2,3-butanediol in the washout cohorts. At the end of the experiment blood was collected and plasma isolated and analysed. Mice were culled, and final body weights and epidydimal fat deposits recorded.
# [2] = system: Sprague-Dawley rat adipocytes; details: cited from earlier work
# [3] = 60, 250 or 600 mg/kg in drinking water
# [4] = 250 and 600 mg/kg/day doses in drinking water
# [5] = 200 mg/kg/day from age 8 weeks to age 29 weeks, male mice
# [6] = 200 mg/kg/day from age 8 weeks, treatment removed at age 22 weeks, 6 week washout on water alone
structure (smiles),measurement,setting,value
"CC(O)C(C)O (stereo not drawn) [2,3-butanediol]",plasma cholesterol,[1]; 250 mg/kg/day dose in drinking water,significantly reduced
same,Epididymal white adipose tissue (EWAT) to body weight ratios,"[1]; 250 mg/kg/day dose in drinking water, mice aged 13 to 17 weeks",significantly reduced
same,plasma alanine aminotransferase,[1]; [3],No changes
same,plasma alkaline phosphatase,[1]; [3],No changes
same,plasma aspartate aminotransferase,[1]; [3],No changes
same,Plasma free fatty acids,[1]; [4],significantly reduced
same,Plasma lactate dehydrogenase,[1]; [4],significantly reduced
same,Plasma triglycerides,[1]; [4],significantly reduced
same,fat (EWAT/body weight),WT mice; [5],significant reductions
same,plasma cholesterol,WT mice; [5],significant reductions
same,treatment effect on fat (EWAT/body weight) after washout,WT mice; [6],persistent
same,treatment effect on plasma cholesterol after washout,WT mice; [6],persistent
same,"2,3-butanediol in urine after removal of treatment","WT mice; urine collected 1 week following removal of 2,3-butanediol, washout cohorts",absence
same,14C-glucose incorporation into triglyceride glycerol,[2]; at higher concentrations,inhibitor
same,14C-glucose incorporation into triglyceride fatty acid,[2],potent inhibitor
